# Article PMC9218685, “Legume Plant Peptides as Sources of Novel Antimicrobial Molecules Against Human Pathogens” (Frontiers in Molecular Biosciences, 2022)
# Ends that are not written are not given here. Peptide text beside a SMILES is read from it.
# Legend:
# [1] = system: Pseudomonas aeruginosa (ATCC 27853); format: cell-based; conditions: for MBC Pseudomonas aeruginosa: ATCC 27853, 3 h
# Text: (§1) The following pathogenic bacterial strains were used: The Gram-positive Enterococcus faecalis (ATCC 29212), Staphylococcus aureus (HNCMO112011), Listeria monocytogenes (ATCC 19111) and the Gram-negative Pseudomonas aeruginosa (ATCC 27853), Escherichia coli (ATCC 8739), Salmonella enterica (ATCC 13076), Klebsiella pneumoniae (NCTC 13440), Acinetobacter baumannii (ATCC 17978) obtained from the ATCC (United States) and NCTC (National Collection of Type Cultures–England). For the antifungal experiment the Candida albicans W01 strain ([Ördögh et al., 2014]) was used. Antimicrobial activities of peptides against ∼10^7 log phase bacteria were tested in Potassium-Phosphate Buffer (PPB, pH 7.4) as described by [Jenei et al. (2020)] while anti-Candida assays were done according to [Szerencsés et al. (2021)]. The two-fold dilution series of peptides ranged from 25 μM to 0.125 μM, while that of the antibiotics ampicillin (Merck) and miconazole (Duchefa Biochemie) from […] to 0.1 μM. The lowest concentration of the antimicrobial agents, which completely eliminated viable bacteria or C. albicans were considered as the minimal bactericidal concentration (MBC) and minimal fungicidal concentration (MFC).
# (§2) The minimal bactericidal concentrations (MBCs) were determined after 3 h of treatment of ∼10^7 log phase bacteria with 2-fold serial dilution of peptides from 25 µM to 0.8 µM. Only 25 of the 50 cationic M. truncatula peptides had activity at ≤25 µM (Supplementary Table S1). […] Three peptides were only active against two bacterial strains; NCR649 against L. monocytogenes and A. baumannii, NCR281 against L. monocytogenes and P. aeruginosa and NCR350 against A. baumannii and P. aeruginosa. […] None of the anionic NCR peptides affected the survival of the tested bacterial strains.
# [2] = system: Acinetobacter baumannii (ATCC 17978); assay: microbe, parasite or virus in culture; format: cell-based; conditions: for Activity against A. baumannii: 3 h, peptides ≤25 µM; for MBC Acinetobacter baumannii: ATCC 17978, 3 h
# Text: as §1, §2
Molecule,MBC Pseudomonas aeruginosa [1] [µM],Activity against A. baumannii ([2]; ~10^7 log phase bacteria),MBC Acinetobacter baumannii [2] [µM],also measured
CC[C@H](C)[C@H](NC(=O)[C@H](Cc1ccc(O)cc1)NC(=O)[C@H](CC(N)=O)NC(=O)[C@H](CCCCN)NC(=O)[C@@H](NC(=O)[C@H](CO)NC(=O)[C@@H]1CCCN1C(=O)[C@H](CS)NC(=O)[C@H](CC(=O)O)NC(=O)[C@H](CCCCN)NC(=O)[C@H](CC(=O)O)NC(=O)[C@@H](NC(=O)[C@@H](NC(=O)[C@H](CS)NC(=O)[C@@H](NC(=O)[C@H](CCCNC(=N)N)NC(=O)[C@@H](NC(=O)[C@@H](NC(=O)[C@@H]1CCCN1C(=O)[C@H](CC(C)C)NC(=O)[C@H](Cc1ccc(O)cc1)NC(=O)[C@@H](N)[C@@H](C)O)[C@@H](C)O)[C@@H](C)O)[C@@H](C)CC)[C@@H](C)CC)[C@@H](C)O)C(C)C)C(=O)NCC(=O)N[C@@H](CCCNC(=N)N)C(=O)N[C@@H](CS)C(=O)N[C@@H](CCCNC(=N)N)C(=O)N[C@@H](CCCCN)C(=O)NCC(=O)N[C@@H](Cc1ccc(O)cc1)C(=O)N[C@@H](CS)C(=O)N[C@@H](CCC(N)=O)C(=O)N[C@@H](C)C(=O)N[C@@H](CO)C(=O)N[C@@H](CCCCN)C(=O)N[C@@H](CC(C)C)C(=O)N[C@@H](CCCNC(=N)N)C(=O)O [NCR042] (H-TYLPTTRICITDKDCPSVKNYIGRCRKGYCQASKLR-OH; N-terminus assumed),25,,,
CC[C@H](C)[C@H](NC(=O)[C@H](CC(N)=O)NC(=O)[C@H](Cc1ccc(O)cc1)NC(=O)[C@H](CCC(N)=O)NC(=O)[C@H](CO)NC(=O)[C@@H](NC(=O)[C@H](CCCCN)NC(=O)[C@@H]1CCCN1C(=O)[C@H](CS)NC(=O)[C@H](CC(=O)O)NC(=O)[C@H](CCCCN)NC(=O)[C@H](CC(=O)O)NC(=O)[C@@H](NC(=O)[C@@H](NC(=O)[C@H](CS)NC(=O)[C@@H]1CCCN1C(=O)CNC(=O)[C@H](CO)NC(=O)[C@H](CC(N)=O)NC(=O)[C@@H](NC(=O)[C@H](Cc1ccc(O)cc1)NC(=O)[C@@H]1CCCN1C(=O)[C@@H](NC(=O)[C@H](CO)NC(=O)[C@H](CC(=O)O)NC(=O)[C@H](Cc1ccc(O)cc1)NC(=O)[C@@H](NC(=O)[C@@H](N)CO)C(C)C)[C@@H](C)CC)C(C)C)C(C)C)[C@@H](C)O)C(C)C)C(=O)N[C@@H](CCCNC(=N)N)C(=O)N[C@@H](CS)C(=O)N[C@@H](CCCNC(=N)N)C(=O)N[C@@H](CCCCN)C(=O)NCC(=O)N[C@@H](CCC(N)=O)C(=O)N[C@@H](CS)C(=O)N[C@@H](C)C(=O)N[C@@H](CCCNC(=N)N)C(=O)N[C@H](C(=O)N[C@@H](CCCNC(=N)N)C(=O)N[C@H](C(=O)O)C(C)C)[C@@H](C)CC [NCR361] (H-SVYDSIPYVNSGPCVTDKDCPKVSQYNIRCRKGQCARIRV-OH; N-terminus assumed),25,,,
VYDSKYFQIASPCVNDKDCPQFKNNNVRCRRGFCVNSGGATQKCLGCPSLK-OH (cysteines drawn unpaired) [NCR350],25,active,12.5,"Activity against P. aeruginosa ([1]; 3 h, ~10^7 log phase bacteria, peptides ≤25 µM): active"
CC[C@H](C)[C@H](NC(=O)[C@H](CC(N)=O)NC(=O)[C@H](Cc1c[nH]cn1)NC(=O)[C@@H]1CCCN1C(=O)[C@@H]1CCCN1C(=O)[C@H](CCSC)NC(=O)[C@H](CCCNC(=N)N)NC(=O)[C@@H]1CCCN1C(=O)[C@H](CS)NC(=O)[C@H](CC(=O)O)NC(=O)[C@H](CCCCN)NC(=O)[C@H](CC(=O)O)NC(=O)[C@@H](NC(=O)[C@H](CC(C)C)NC(=O)[C@H](CS)NC(=O)[C@@H]1CCCN1C(=O)[C@H](CCCNC(=N)N)NC(=O)[C@H](CC(C)C)NC(=O)[C@@H](NC(=O)[C@H](CCSC)NC(=O)CNC(=O)[C@@H](N)Cc1ccccc1)[C@@H](C)O)[C@@H](C)O)C(=O)N[C@@H](CCCCN)C(=O)N[C@@H](CS)C(=O)N[C@@H](CCCNC(=N)N)C(=O)N[C@@H](CCCCN)C(=O)NCC(=O)N[C@@H](Cc1c[nH]cn1)C(=O)N[C@@H](CS)C(=O)N[C@H](C(=O)N1CCC[C@H]1C(=O)N[C@H](C(=O)NCC(=O)N[C@@H](CCCCN)C(=O)N1CCC[C@H]1C(=O)N[C@@H](Cc1ccccc1)C(=O)N[C@@H](CCCCN)C(=O)O)[C@@H](C)CC)C(C)C [NCR137] (H-FGMTLRPCLTDKDCPRMPPHNIKCRKGHCVPIGKPFK-OH; N-terminus assumed),,,25,
"CC1(C)S[C@@H]2[C@H](NC(=O)[C@H](N)c3ccccc3)C(=O)N2[C@H]1C(=O)O [Ampicillin, reference compound]",,,,"MBC ([2]; Acinetobacter baumannii, ATCC17978, ~10^7 log phase bacteria, Potassium-Phosphate Buffer pH 7.4, 3 h treatment, two-fold dilution series, lowest concentration completely eliminating viable bacteria, read-out: MBC, minimal bactericidal concentration against A. baumannii): 10200 µM"
CC[C@H](C)[C@H](NC(=O)[C@H](Cc1ccc(O)cc1)NC(=O)[C@H](CC(N)=O)NC(=O)[C@H](CCCNC(=N)N)NC(=O)[C@@H](NC(=O)[C@H](CCC(N)=O)NC(=O)[C@H](CCCNC(=N)N)NC(=O)[C@H](CS)NC(=O)[C@H](CC(=O)O)NC(=O)[C@H](CCCCN)NC(=O)[C@H](CC(N)=O)NC(=O)[C@@H](NC(=O)[C@@H](NC(=O)[C@H](CS)NC(=O)[C@H](CC(N)=O)NC(=O)[C@H](CCCNC(=N)N)NC(=O)[C@H](CO)NC(=O)[C@@H](NC(=O)[C@@H]1CCCN1C(=O)[C@H](CC(C)C)NC(=O)[C@@H](N)Cc1ccccc1)[C@@H](C)O)[C@@H](C)CC)[C@@H](C)O)C(C)C)C(=O)N[C@@H](C)C(=O)N[C@@H](CCCNC(=N)N)C(=O)N[C@@H](CS)C(=O)N[C@@H](CCCNC(=N)N)C(=O)N[C@@H](CCCCN)C(=O)NCC(=O)N[C@@H](CCC(N)=O)C(=O)N[C@@H](CS)C(=O)N[C@@H](CC(C)C)C(=O)N[C@@H](CCC(N)=O)C(=O)N[C@@H](CO)C(=O)N1CCC[C@H]1C(=O)N[C@H](C(=O)N[C@@H](CCCNC(=N)N)C(=O)O)C(C)C [NCR030] (H-FLPTSRNCITNKDCRQVRNYIARCRKGQCLQSPVR-OH; N-terminus assumed),,only against A. baumannii,3.125,
CC[C@H](C)[C@H](NC(=O)[C@H](Cc1ccccc1)NC(=O)[C@@H](NC(=O)[C@H](CCCCN)NC(=O)[C@H](CC(=O)O)NC(=O)[C@@H]1CCCN1C(=O)[C@@H](N)Cc1ccccc1)[C@@H](C)CC)C(=O)NCC(=O)N[C@@H](CC(=O)O)C(=O)N[C@@H](CS)C(=O)N[C@@H](CCCCN)C(=O)N[C@H](C(=O)N[C@@H](CC(=O)O)C(=O)N[C@@H](CCCCN)C(=O)N[C@@H](CC(=O)O)C(=O)N[C@@H](CS)C(=O)N[C@@H](CCCCN)C(=O)N1CCC[C@H]1C(=O)N[C@@H](CCCCN)C(=O)N[C@@H](CCCNC(=N)N)C(=O)NCC(=O)N[C@H](C(=O)N[C@@H](CC(N)=O)C(=O)N[C@@H](Cc1ccccc1)C(=O)N[C@@H](CCCNC(=N)N)C(=O)N[C@@H](CS)C(=O)N[C@@H](CCCNC(=N)N)C(=O)N[C@@H](CCCCN)C(=O)NCC(=O)N[C@@H](CCCCN)C(=O)N[C@@H](CS)C(=O)N[C@@H](Cc1ccc(O)cc1)C(=O)N1CCC[C@H]1C(=O)N[C@@H](CCCNC(=N)N)C(=O)O)C(C)C)[C@@H](C)O [NCR032] (H-FPDKIFIGDCKTDKDCKPKRGVNFRCRKGKCYPR-OH; N-terminus assumed),,only against A. baumannii,3.125,
